Test results published in US8143031B2, “Production of N-acylated sulphur-containing amino acids with microorganisms having enhanced N-acyltransferase enzymatic activity” (Metabolic Explorer, priority 2008, dated 2012).

B1: Purified Protein: Purified methionine N-acyl transferase from E. coli, identified as YncA, a GCN5 related acyl transferase, SEQ ID NO: 1 (protein, listed as Escherichia coli)
chain: MSIRFARKADCAAIAEIYNHAVLYTAAIWNDQTVDADNRIAWFEARTLAGYPVLVSEENGVVTGYASFGDWRSFDGFRHTVEHSVYVHPDHQGKGLGRKLLSRLIDEARDCGKHVMVAGIESQNQASLHLHQSLGFVVTAQMPQVGTKFGRWLDLTFMQLQLDERTEPDAIG

Columns and labels:
YncA = molecular target: T1, YncA (Escherichia coli, UniProt P76112); assay: DTNB-based substrate and acyl-donor specificity test of YncA; assay type: biochemical, E. coli; conditions: for % Activity (activity of YncA with respect to the co-substrate Acetyl-coA): Acetyl-coA = 100; for % Activity (activity with respect to the substrate methionine): methionine = 100; for Activity as substrate of YncA (in words): DTNB-based assay
T1 construct: The purified protein was identified as YncA, a GCN5 related acyl transferase; made in house; host or cells: Untagged endogenous activity purified chromatographically from broken cells; E. coli is inferred
Procedure: (§1) Methionine L-amino-acid-N-acyl transferase activity was followed in microtiter plates by monitoring the apparition of HS-CoA with DTNB. The reaction solution, to which the sample was added, contained 200 mM Tris-HCl, pH 9.0, […], 3 mM Acetyl-coA and 20 mM methionine. Formation of the DTNB-CoA complex was monitored at 408 nm using a μQuant microtiter plate reader (BioTek Instruments, Inc., USA).
The substrate specificity was tested using the DTNB-based assay (see above).

[1] = molecular target: Pseudomonas PA4866 protein (Pseudomonas aeruginosa, UniProt Q9HUU7); conditions: cited from earlier work
Sequence of Pseudomonas PA4866 protein (Q9HUU7 whole entry): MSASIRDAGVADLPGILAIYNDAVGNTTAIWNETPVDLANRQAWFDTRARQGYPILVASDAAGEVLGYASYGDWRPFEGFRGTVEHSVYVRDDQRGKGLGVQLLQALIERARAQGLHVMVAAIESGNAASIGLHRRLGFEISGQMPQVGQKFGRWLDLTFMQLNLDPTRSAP

[2] = compared with the L-isomer; cited from earlier work
[3] = compared with pure methionine; cited from earlier work
[4] = MNAT activity test in vitro of purification fractions (DTNB, acetyl-coA, methionine); assay type: biochemical, E. coli; conditions: purification steps
Procedure: as §1
˜3 g of dry weight cells were rinsed 3 times with extraction buffer (EB) (50 mM phosphate, pH 7.0, 50 μM PLP, 500 μM DTT) and suspended in 70 mL EB. Cells were broken by sonication using a Rosett cell with a Bandelin Sonoplus ultrasonic homogenizer (Bandelin Electronic, Germany) equipped with a UW2070 probe and a SH70G tip (6 burst, 30 s, 100% efficiency, 75 W). The crude extract was centrifuged (30 min, 12.000 g, 4° C.) and solid ammonium sulfate was added to the supernatant to a final concentration of 2.3 M, and incubated on ice for 30 min. The solution was centrifuged (15 min, 15.000 g, 4° C.) and the pellet suspended in 40 mL phosphate buffer (50 mM phosphate, pH 7.0). Solid ammonium sulfate was added to a final concentration of 1.5 M, and the solution was incubated on ice for 30 min and then centrifuged (15 min, 15.000 g, 4 C). […]

[5] = methionine as substrate, various acyl-donors
[6] = Acetyl-coA as acyl-donor, various substrates

Molecule | % Activity (activity with respect to the substrate methionine) (YncA; Acetyl-coA as acyl-donor) | Specific Activity (YncA; [6]) | Activity as substrate of YncA (in words) (YncA) | other results
CC(=O)SCCNC(=O)CCNC(=O)[C@H](O)C(C)(C)COP(=O)(O)OP(=O)(O)OC[C@H]1O[C@@H](n2cnc3c(N)ncnc32)[C@H](O)[C@@H]1OP(=O)(O)O [Acetyl-coA] | – | – | – | Activity as acyl-donor of YncA (in words) (YncA; methionine as substrate): worked properly as an acyl donor; % Activity (activity of YncA with respect to the co-substrate Acetyl-coA) (YncA; methionine as substrate): 100%; Specific Activity (YncA; [5]): 745 mUI/mg protein
NC(=O)C[C@H](N)C(=O)O [Asparagine] | 2.4% | 18 mUI/mg protein | Weak activities | –
N[C@@H](CC(=O)O)C(=O)O [Aspartate] | 1% | – | – | –
CCCC(=O)SCCNC(=O)CCNC(=O)[C@H](O)C(C)(C)COP(=O)(O)OP(=O)(O)OC[C@H]1O[C@@H](n2cnc3c(N)ncnc32)[C@H](O)[C@@H]1OP(=O)(O)O [Butyryl-coA] | – | – | – | Activity as acyl-donor of YncA (in words) (YncA; methionine as substrate): weak activities; % Activity (activity of YncA with respect to the co-substrate Acetyl-coA) (YncA; methionine as substrate): 17%; Specific Activity (YncA; [5]): 129 mUI/mg protein
N[C@@H](CCC(=O)O)C(=O)O [Glutamate] | 0.6% | 4 mUI/mg protein | Weak activities | –
NC(=O)CC[C@H](N)C(=O)O [Glutamine] | 1.4% | 10 mUI/mg protein | Weak activities | –
NCCCC[C@H](N)C(=O)O [Lysine] | 1.6% | 12 mUI/mg protein | Weak activities | –
CS(=O)(=O)CC[C@H](N)C(=O)O [Methionine sulfone] | 178.8% | 1332 mUI/mg protein | Strong activities | –
C[S+]([O-])CC[C@H](N)C(=O)O (stereo partly drawn) [Methionine sulfoxide] | 147.6% | 1100 mUI/mg protein | Strong activities | –
CS(=N)(=O)CC[C@H](N)C(=O)O (stereo partly drawn) [Methionine sulfoximine] | 166.9% | 1243 mUI/mg protein | Strong activities | –
CSCC[C@H](N)C(=O)O [Methionine] | 100% | 745 mUI/mg protein | Strong activities | Acetylation by Pseudomonas PA4866 protein [1]: did not acetylate
CSCC[C@@H](NC(C)=O)C(=O)O [N-acetyl-D-methionine] | – | – | – | Incorporation by animals [2]: not incorporated as well as its L-isomer
CSCC[C@H](NC(C)=O)C(=O)O [NAM, N-acetyl-L-methionine] | – | – | – | Methionine-sparing value [3]: same methionine-sparing value as pure methionine
CCC(=O)SCCNC(=O)CCNC(=O)[C@H](O)C(C)(C)COP(=O)(O)OP(=O)(O)OC[C@H]1O[C@@H](n2cnc3c(N)ncnc32)[C@H](O)[C@@H]1OP(=O)(O)O [Propionyl-coA] | – | – | – | Activity as acyl-donor of YncA (in words) (YncA; methionine as substrate): preferred acyl-donor; % Activity (activity of YncA with respect to the co-substrate Acetyl-coA) (YncA; methionine as substrate): 140%; Specific Activity (YncA; [5]): 1039 mUI/mg protein
B1 | – | – | – | Specific Activity ([4]; methionine N-acyl transferase activity): 19689 mUI/mg prot; Activity ([4]; total methionine N-acyl transferase activity): 0.126 UI
